Measured values as given in US9974304B2, “Use of macrocyclic picolinamides as fungicides” (DOW AGROSCIENCES LLC, priority 2013, dated 2018).

Compound	melting point [°C]
COc1ccnc(C(=O)N[C@H]2COC[C@H](Oc3ccccc3)[C@@H](Cc3ccccc3)[C@H](C)OC2=O)c1OC(C)=O [Compound 81]	75 to 81
COc1ccnc(C(=O)N[C@H]2COC[C@H](Oc3ccccc3)[C@@H](CCC(C)C)[C@H](C)OC2=O)c1OC(C)=O [Compound 47]	66 to 70
